Assay results as given in publication PMC6449538, “Antimicrobial Activity of Selected Antimicrobial Peptides Against Planktonic Culture and Biofilm of Acinetobacter baumannii” (Probiotics and Antimicrobial Proteins, 2018).
≈ marks a conversion by molar mass, not a printed value. Read-outs that look alike come from different tables or passages of the source. Where no end group is shown, it is not given here.

How the values were obtained:
A. baumannii ATCC 19606 = test: microbe, parasite or virus in culture; format: cell-based, Acinetobacter baumannii
Procedure: (§1) The A. baumannii ATCC 19606 strain was acquired from the American Type Culture Collection and prepared in line with the manufacturer’s instructions. The culture was stored in Roti®-Store Cryo-Vials (Carl Roth GmbH, Karlsruhe, Germany) at − 20 °C. Before the tests, the bead with cryo-protected bacteria was transferred into fresh MHB (Biocorp, Warsaw, Poland) and incubated for 24 h at 37 °C. Then, the culture was seeded on MHA plates and incubated as just mentioned. The agar cultures prepared in this way were used for further experiments. Cell densities for all assays were adjusted spectrophotometrically (Multiskan™ GO Microplate Spectrophotometer, Thermo Scientific) at 600 nm.
The MICs and MBCs were determined with the reference to the Clinical and Laboratory Standards Institute guidelines. MICs were determined by broth microdilution method. For this purpose, initial inoculums of bacteria (0.5 × 10^5 CFU/mL) in MHB were exposed to a series of concentrations (0.5–256 μg/mL) of the compounds and incubated for 18 h at 37 °C. The experiments were conducted on 96-well microtiter polystyrene plates with the final volume of 100 μL. The MIC was taken as the lowest drug concentration at which a noticeable growth of microorganisms was inhibited. In parallel, the MIC wells, two above and one below (positive control), were cultured on a MHA plate. […] All experiments were conducted in triplicate.

[1] = system: A. baumannii ATCC 19606 biofilm; format: cell-based, Acinetobacter baumannii
Procedure: as §1
The antibiofilm activity was determined on 96-well flat-bottomed microtiter polystyrene plates and 0.5-cm fragments of tracheal tubes (RIM-75, ZARYS International Group, Zabrze, Poland), with resazurin (7-hydroxy-3H-phenoxazin-3-one 10-oxide) as a cell viability reagent. The first part included assay on 96-well plates. To do this, the plates were filled with 100 μL of the initial inoculums of bacteria (0.5 × 10^7 CFU/mL) in the MHB and incubated for 24 h at 37 °C. Then, the wells were rinsed three times with PBS to remove non-adhered cells and the fresh medium with a series of concentrations (0.5–256 μg/mL) of the compounds was added. After 24 h of incubation, 20 μL of resazurin (4 mg/mL) was added to each well and the MBEC values were read. The assay on tracheal tube fragments was conducted using 24-well polystyrene plates. Briefly, the tracheal tube fragments were dipped in 1 mL of the bacterial inoculum (0.5 × 10^7 CFU/mL) and incubated at 37 °C. After 24 h of incubation, the test fragments were rinsed three times with PBS and transferred into other wells containing the fresh medium with a series of concentrations of the test compounds. Subsequently, the plates were incubated again for 24 h at 37 °C. Then, 200 μL of resazurin was added and the MBEC was read. All experiments were conducted in triplicate.

[2] = Acinetobacter baumannii, ATCC19606, MIC wells cultured on MHA plate, 24 h at 37 °C, no visible growth, triplicate, read-out: MBC
[3] = Acinetobacter baumannii, ATCC19606, broth microdilution (CLSI), MHB, inoculum 0.5 × 10^5 CFU/mL, 18 h at 37 °C, polystyrene 96-well plates, triplicate, read-out: MIC
[4] = 24 h biofilm on 0.5-cm tracheal tube fragments, 24 h treatment at 37 °C, resazurin read-out, triplicate
[5] = 24 h biofilm on polystyrene 96-well plates, 24 h treatment at 37 °C, resazurin read-out, triplicate
[6] = MIC wells cultured on MHA plate, 24 h at 37 °C, no visible growth, triplicate
[7] = broth microdilution (CLSI), MHB, inoculum 0.5 × 10^5 CFU/mL, 18 h at 37 °C, polystyrene 96-well plates, triplicate

Row | Compound | MBC (A. baumannii ATCC 19606; [2]) [mg/L] | MIC (A. baumannii ATCC 19606; [3]) [mg/L] | MBEC^tt [1, 4] [µg/mL] | MBEC [1, 5] | MIC (A. baumannii ATCC 19606; ATCC 19606, 18 h) [mg/L] | MBC (A. baumannii ATCC 19606; ATCC 19606, 24 h) [mg/L] | MBEC ([1]; ATCC 19606, 24 h) [µg/mL] | MBEC^tt ([1]; ATCC 19606, 24 h) [µg/mL] | MBC (A. baumannii ATCC 19606; [6]) [mg/L] | MIC (A. baumannii ATCC 19606; [7]) [mg/L] | MBEC^tt ([1]; 24 h biofilm on 0.5-cm tracheal tube fragments, 24 h treatment at 37 °C, resazurin read-out, triplicate, listed as piperacillin)
1 | CNC(C)C1CCC(N)C(OC2C(N)CC(N)C(OC3OCC(C)(O)C(NC)C3O)C2O)O1 (stereo not drawn) [Gentamicin, reference compound] | 32 (≈ 67 µM) | 16 (≈ 33.5 µM) | 32 | 32 µg/mL |  |  |  |  |  |  | 
2 | CC[C@H]1OC(=O)[C@H](C)[C@@H](O[C@H]2C[C@@](C)(OC)[C@@H](O)[C@H](C)O2)[C@H](C)[C@@H](O[C@@H]2O[C@H](C)C[C@H](N(C)C)[C@H]2O)[C@](C)(O)C[C@@H](C)C(=O)[C@H](C)[C@@H](O)[C@]1(C)O [Erythromycin, reference compound] | 32 (≈ 43.6 µM) | 32 (≈ 43.6 µM) | 16 | 32 µg/mL |  |  |  |  |  |  | 
3 | KRRWPWWPWRLI-NH2 [r-Omiganan] |  |  |  |  | 16 | 16 | 256 | 128 |  |  | 
4 | GLFDIIKKIAESF-NH2 [Aurein 1.2] |  |  | 32 | 64 µg/mL |  |  |  |  | 16 | 16 | 
5 | CCN1CCN(C(=O)N[C@@H](C(=O)N[C@@H]2C(=O)N3[C@@H]2SC(C)(C)[C@@H]3C(=O)O)c2ccccc2)C(=O)C1=O [Piperacillin, reference compound] | 128 (≈ 247 µM) | 64 (≈ 124 µM) | > 512 | failed to eradicate the biofilm at any concentration |  |  |  |  |  |  | failed to eradicate the biofilm at any concentration
6 | FLPLIGRVLSGIL-NH2 [Temporin A] |  |  |  |  | 128 | 128 |  | 256 |  |  | 
7 | ILRWPWWPWRRK-NH2 [Omiganan] |  |  |  |  | 32 | 64 | 256 | 128 |  |  | 
8 | CO[C@H]1/C=C/O[C@@]2(C)Oc3c(C)c(O)c4c(O)c(c(/C=N/N5CCN(C)CC5)c(O)c4c3C2=O)NC(=O)/C(C)=C\C=C\[C@H](C)[C@H](O)[C@@H](C)[C@@H](O)[C@@H](C)[C@H](OC(C)=O)[C@@H]1C [Rifampicin, reference compound] | 4 (≈ 4.86 µM) | 4 (≈ 4.86 µM) | 4 | 8 µg/mL |  |  |  |  |  |  | 
9 | KWKLFKKIGAVLKVL-NH2 [CAMEL] |  |  | 64 | 128 µg/mL |  |  |  |  | 4 | 2 | 
10 | GIGKFLKKAKKFGKAFVKILKK-NH2 [Pexiganan] |  |  |  |  | 2 | 4 | 256 | 32 |  |  | 
11 | CN(C)[C@@H]1C(O)=C(C(N)=O)C(=O)[C@@]2(O)C(O)=C3C(=O)c4c(O)cccc4[C@@](C)(O)[C@H]3C[C@@H]12 [Tetracycline, reference compound] | 4 (≈ 9 µM) | 2 (≈ 4.5 µM) | 4 | 16 µg/mL |  |  |  |  |  |  | 
12 | O=C(O)c1cn(C2CC2)c2cc(N3CCNCC3)c(F)cc2c1=O [Ciprofloxacin, reference compound] | 1 (≈ 3.02 µM) |  | 1 | 2 µg/mL |  |  |  |  |  |  | 
13 | GLFDVIKKVASVIGGL-NH2 [Citropin 1.1] |  |  |  |  | 16 | 16 | 256 | 32 |  |  | 
